The values that follow come from patent publication US11026943B2, “Aminoquinoline derivatives and uses thereof” (UNIVERSITY OF DELHI, priority 2012, dated 2021).

Structures are written as SMILES.

One series can be described thus: Solubility (solvent listed in compound tables). The format is physicochemical. Particulars: solvent named, Table 3.
For `Clc1ccc2c(N3CCN(c4ccnc(NC5CCCCC5)n4)CC3)ccnc2c1` [ATH 236], the SOLUBILITY result is “DMSO”.
Regarding `Cc1cc(NCCCNc2ccnc3cc(Cl)ccc23)nc(N2CCCCC2)n1` [SM 485], the SOLUBILITY entry is recorded as “DMSO”.
As to `Cc1cc(NCCCCCCNc2ccnc3cc(Cl)ccc23)nc(N2CCN(C)CC2)n1` [SM 507], the SOLUBILITY entry is on record as “DMSO”.
On the same count and under the same terms, the entry for `COc1ccc(Nc2nc(NCCNc3c4ccc(Cl)cc4nc4ccc(OC)cc34)nc(NC3CCCCC3)n2)cc1` [ATH 200] is “DMSO”; for `CC(CNc1ccnc2cc(Cl)ccc12)Nc1nc(N2CCOCC2)nc(N2CCOCC2)n1` (stereo not drawn) [SM 143] it is “DMSO”.
Turning to `Clc1ccc2c(NCCNc3cc(Cl)nc(N4CCCCC4)n3)ccnc2c1` [SM 697], the SOLUBILITY entry is recorded as “DMSO”.
Take `OCCCCNc1nc(NCCCCNc2ccnc3cc(Cl)ccc23)nc(N2CCOCC2)n1` [SM 362]: the SOLUBILITY entry is “DMSO”.
On the same count and under the same terms, under `COc1ccc(Nc2nc(NCCCCNc3ccnc4cc(Cl)ccc34)nc(N3CCOCC3)n2)cc1` [SM 356] stands “DMSO”; under `OCCNc1nccc(N2CCN(c3ccnc4cc(Cl)ccc34)CC2)n1` [ATH 254], “DMSO”; under `Cc1cc(NCCCCNc2ccnc3cc(Cl)ccc23)nc(Cl)n1` [SM 498A], “DMSO”.
Consider `OCCNc1nc(NCCCNc2ccnc3cc(Cl)ccc23)nc(N2CCOCC2)n1` [SM 353], for which the SOLUBILITY entry is listed as “DMSO”.
For `COc1ccc(Nc2cc(C)nc(N3CCN(c4ccnc5cc(Cl)ccc45)CC3)n2)cc1` [ATH 245], the SOLUBILITY result is on record as “DMSO”.
With `Clc1ccc2c(N3CCN(c4nccc(Nc5ccc(Br)cc5)n4)CC3)ccnc2c1` [ATH 226], the SOLUBILITY result was “DMSO”.
Turning to `Cc1cc(NCCCCNc2ccnc3cc(Cl)ccc23)nc(N2CCOCC2)n1` [SM 500], the SOLUBILITY result was “DMSO”.
Same read-out and setting: the entry for `COc1cc(Nc2nc(NCCNc3c4ccc(Cl)cc4nc4ccc(OC)cc34)nc(N3CCN(c4ccccc4)CC3)n2)cc(OC)c1` [ATH 170] is “DMSO”; for `OCCCNc1nc(NCCCCNc2ccnc3cc(Cl)ccc23)nc(N2CCOCC2)n1` [SM 349] it is “DMSO”; for `Clc1ccc2c(NCCNc3cc(Cl)nc(N4CCOCC4)n3)ccnc2c1` [SM 696] it is “DMSO”.
Regarding `COc1cc(Nc2nc(NC(C)CNc3ccnc4cc(Cl)ccc34)nc(N3CCOCC3)n2)cc(OC)c1` (stereo not drawn) [SM 130], the SOLUBILITY result is on record as “DMSO”.
On the same count and under the same terms, under `Clc1ccc2c(NCCNc3ccnc(N4CCOCC4)n3)ccnc2c1` [SM 731] stands “DMSO”.
As for `CCN1CCN(c2nc(Cl)cc(NCCCNc3ccnc4cc(Cl)ccc34)n2)CC1` [SM 714], the SOLUBILITY result was “DMSO”.
`Clc1ccc2c(NCCNc3nc(N4CCOCC4)nc(N4CCOCC4)n3)ccnc2c1` [SM 142]: the SOLUBILITY result is “DMSO”.
On to `Cc1cc(N2CCN(c3ccnc4cc(Cl)ccc34)CC2)nc(N2CCCCC2)n1` [ATH 240], for which the SOLUBILITY result was “DMSO”.
Still for that read-out and setting: the entry for `COc1ccc(Nc2nc(NCCNc3c4ccc(Cl)cc4nc4ccc(OC)cc34)nc(N(C)C)n2)cc1` [ATH 165] is “DMSO”; for `Fc1ccc(Nc2nc(NCCCCNc3ccnc4cc(Cl)ccc34)nc(N3CCOCC3)n2)cc1` [SM 357] it is “DMSO”.
Take `Cc1cc(NCCCCNc2ccnc3cc(Cl)ccc23)nc(N2CCCCC2)n1` [SM 499]: the SOLUBILITY entry is listed as “DMSO”.
As to `COc1ccc(Nc2ccnc(N3CCN(c4ccnc5cc(Cl)ccc45)CC3)n2)cc1` [ATH 220], the SOLUBILITY entry is “DMSO”.
With `Cc1cc(NCCCNc2ccnc3cc(Cl)ccc23)nc(N2CCN(C)CC2)n1` [SM 494], the SOLUBILITY entry was “DMSO”.
For the compound `CCN1CCN(c2ccnc(NCCCNc3ccnc4cc(Cl)ccc34)n2)CC1` [SM 727], the SOLUBILITY entry is “DMSO”.
Turning to `Clc1ccc2c(NCCCCNc3nc(Nc4ccccc4)nc(N4CCOCC4)n3)ccnc2c1` [SM 359], the SOLUBILITY entry is given as “DMSO”.
Still for that read-out and setting: under `Cc1cc(Nc2ccc(F)cc2)nc(N2CCN(c3ccnc4cc(Cl)ccc34)CC2)n1` [ATH 247] stands “DMSO”; under `CCN1CCN(c2nc(C)cc(NCCCCNc3ccnc4cc(Cl)ccc34)n2)CC1` [SM 502], “DMSO”.
In the case of `Clc1ccc2c(NCCCNc3cc(Cl)nc(N4CCCCC4)n3)ccnc2c1` [SM 711], the SOLUBILITY entry is “DMSO”.
Take `Clc1ccc2c(NCCCNc3ccnc(N4CCOCC4)n3)ccnc2c1` [SM 721]: the SOLUBILITY result is given as “DMSO”.
Regarding `COc1cc(Nc2cc(C)nc(N3CCN(c4ccnc5cc(Cl)ccc45)CC3)n2)cc(OC)c1` [ATH 244], the SOLUBILITY result is “DMSO”.
Regarding `Cc1cc(NCCNc2ccnc3cc(Cl)ccc23)nc(N2CCCCC2)n1` [SM 490], the SOLUBILITY result is “DMSO”.
As for `OCCCNc1nc(NCCCNc2ccnc3cc(Cl)ccc23)nc(N2CCOCC2)n1` [SM 351], the SOLUBILITY entry is “DMSO”.
With `Clc1ccc2c(NCCNc3nccc(Cl)n3)ccnc2c1` [SM 728B], the SOLUBILITY entry is reported as “DMSO”.
Take `Fc1ccc(Nc2ccnc(N3CCN(c4ccnc5cc(Cl)ccc45)CC3)n2)cc1` [ATH 223]: the SOLUBILITY result is given as “DMSO”.
On to `Clc1ccc2c(NCCNc3ccnc(N4CCCCC4)n3)ccnc2c1` [SM 730], for which the SOLUBILITY result is “DMSO”.
For the compound `CN1CCN(c2nccc(NCCCNc3ccnc4cc(Cl)ccc34)n2)CC1` [SM 722], the SOLUBILITY entry is listed as “DMSO”.
In the case of `COc1ccc(Nc2nc(NCCNc3c4ccc(Cl)cc4nc4ccc(OC)cc34)nc(N3CCOCC3)n2)cc1` [ATH 182], the SOLUBILITY result is listed as “DMSO”.
For the compound `Cc1cc(NCCCNc2ccnc3cc(Cl)ccc23)nc(Cl)n1` [SM 484A], the SOLUBILITY entry is given as “DMSO”.
Consider `COc1cc(Nc2nc(NCCCNc3c4ccc(Cl)cc4nc4ccc(OC)cc34)nc(N3CCCCC3)n2)cc(OC)c1` [ATH 159], for which the SOLUBILITY entry was “DMSO”.
Still for that read-out and setting: the entry for `Clc1ccc2c(N3CCN(c4ccnc(N5CCOCC5)n4)CC3)ccnc2c1` [ATH 228] is “DMSO”; for `Clc1ccc2c(NCCNc3nc(Nc4ccccc4)nc(N4CCOCC4)n3)ccnc2c1` [SM 336] it is “DMSO”; for `COc1ccc(Nc2nc(NCCNCc3c4ccc(Cl)cc4nc4ccc(OC)cc34)nc(N3CCCCC3)n2)cc1` [ATH 191] it is “DMSO”.
On the same count and under the same terms, the entry for `COc1cc(Nc2nc(NCCCNc3c4ccc(Cl)cc4nc4ccc(OC)cc34)nc(N3CCN(c4ccccc4)CC3)n2)cc(OC)c1` [ATH 171] is “DMSO”; for `Clc1ccc2c(NCCNc3nc(Cl)cc(N4CCCCC4)n3)ccnc2c1` [SM 699] it is “DMSO”; for `OCCNc1nc(NCCNc2ccnc3cc(Cl)ccc23)nc(N2CCOCC2)n1` [SM 352] it is “DMSO”.
Turning to `Fc1ccc(Nc2nc(NCCCNc3ccnc4cc(Cl)ccc34)nc(N3CCOCC3)n2)cc1` [SM 339], the SOLUBILITY result is recorded as “DMSO”.
Same read-out and setting: under `Cc1cc(NCCNc2ccnc3cc(Cl)ccc23)nc(N2CCN(C)CC2)n1` [SM 491] stands “DMSO”.
On the same count and under the same terms, under `COc1cc(Nc2nc(NCCNc3c4ccc(Cl)cc4nc4ccc(OC)cc34)nc(NC3CCCCC3)n2)cc(OC)c1` [ATH 192] stands “DMSO”; under `OCCCCNc1nc(NCCCCNc2ccnc3cc(Cl)ccc23)nc(N2CCCCC2)n1` [SM 375], “DMSO”; under `Cc1ccccc1Nc1nc(NCCNc2ccnc3cc(Cl)ccc23)nc(Nc2ccccc2C)n1` [SM 144], “DMSO”.

Staying with this series, now noted: solvent named, Table 4.
In the case of `Clc1ccc2c(NCCCNc3nccc(Nc4ccc(Br)cc4)n3)ccnc2c1` [DKG810], the SOLUBILITY result is listed as “DMSO”.
In the case of `Cc1cc(Nc2ccc(Br)cc2)nc(NCCCNc2ccnc3cc(Cl)ccc23)n1` [DKG850], the SOLUBILITY result is on record as “DMSO”.
On to `COc1cc(Nc2ccnc(NCCCCNc3ccnc4cc(Cl)ccc34)n2)cc(OC)c1` [DKG831], for which the SOLUBILITY entry is “DMSO”.
As to `COc1ccc(Nc2cc(C)nc(NCCCCNc3ccnc4cc(Cl)ccc34)n2)cc1` [DKG839], the SOLUBILITY entry is “DMSO”.
Same read-out and setting: under `Cc1cc(Nc2ccc(F)cc2)nc(NCCCCNc2ccnc3cc(Cl)ccc23)n1` [DKG855] stands “DMSO”; under `COc1ccc(Nc2ccnc(NCCCNc3ccnc4cc(Cl)ccc34)n2)cc1` [DKG826], “DMSO”.
The same measure, in the same setting: under `Clc1ccc(Nc2ccnc(NCCCCNc3ccnc4cc(Cl)ccc34)n2)cc1` [DKG815] stands “DMSO”; under `COc1ccc(Nc2cc(C)nc(NCCCNc3ccnc4cc(Cl)ccc34)n2)cc1` [DKG838], “DMSO”.
In the case of `Cc1ccc(Nc2cc(C)nc(NCCNc3ccnc4cc(Cl)ccc34)n2)cc1` [DKG857], the SOLUBILITY entry is “DMSO”.
As to `Clc1ccc(Nc2ccnc(NCCCNc3ccnc4cc(Cl)ccc34)n2)cc1` [DKG814], the SOLUBILITY result is on record as “DMSO”.
For the compound `Clc1ccc2c(NCCCCNc3nccc(Nc4ccc(Br)cc4)n3)ccnc2c1` [DKG811], the SOLUBILITY entry is “DMSO”.
With `Cc1cc(Nc2ccc(F)cc2)nc(NCCCNc2ccnc3cc(Cl)ccc23)n1` [DKG854], the SOLUBILITY result is reported as “DMSO”.
`Cc1cc(Nc2ccccc2)nc(NCCCNc2ccnc3cc(Cl)ccc23)n1` [DKG834]: the SOLUBILITY entry is on record as “DMSO”.
As for `Cc1cc(Nc2ccc(Cl)cc2)nc(NCCCNc2ccnc3cc(Cl)ccc23)n1` [DKG846], the SOLUBILITY entry is “DMSO”.
For the compound `Clc1ccc2c(NCCCCNc3nccc(Nc4ccccc4)n3)ccnc2c1` [DKG823], the SOLUBILITY entry is listed as “DMSO”.

Still in this series, the particulars now being: solvents listed for the compound.
Take `OCCCCNc1nccc(NCCCCNc2ccnc3cc(Cl)ccc23)n1` [MT1-158]: the SOLUBILITY result is “MeOH, DMSO”.
For `OCCCCCNc1nccc(NCCCCNc2ccnc3cc(Cl)ccc23)n1` [MT1-162], the SOLUBILITY result is given as “MeOH, DMSO”.
Same read-out and setting: under `Cc1cc(NCCCCNc2ccnc3cc(Cl)ccc23)nc(NCCCCO)n1` [MT1-194] stands “MeOH, DMSO”; under `OCCCNc1nccc(NCCCNc2ccnc3cc(Cl)ccc23)n1` [MT1-121], “MeOH, DMSO”; under `OCCCCCNc1nccc(NCCCNc2ccnc3cc(Cl)ccc23)n1` [MT1-128], “MeOH, DMSO”.
As to `Cc1cc(NCCCCNc2ccnc3cc(Cl)ccc23)nc(NCCO)n1` [MT1-192], the SOLUBILITY result is recorded as “MeOH, DMSO”.
The same measure, in the same setting: the entry for `OCCCNc1nccc(NCCCCNc2ccnc3cc(Cl)ccc23)n1` [MT1-157] is “MeOH, DMSO”.
For the compound `Cc1cc(NCCCCNc2ccnc3cc(Cl)ccc23)nc(NCCCCCO)n1` [MT1-195], the SOLUBILITY entry was “MeOH, DMSO”.
In the case of `OCCCCNc1nccc(NCCCNc2ccnc3cc(Cl)ccc23)n1` [MT1-122], the SOLUBILITY result was “MeOH, DMSO”.
